According to US20260158009A1 (GENZYME CORPORATION, priority 2023, published 2026):

Experiments:
[1] = molecular target: T1, hRIPK1 (aa 1-375) fusion protein (Homo sapiens, UniProt Q13546); test: ADP-Glo kinase assay: catalytic activity of RIPK1 (autophosphorylation, conversion of ATP to ADP); assay type: biochemical
T1 construct: hRIPK1 (aa 1-375) fusion protein
T1 sequence (Q13546 1-375): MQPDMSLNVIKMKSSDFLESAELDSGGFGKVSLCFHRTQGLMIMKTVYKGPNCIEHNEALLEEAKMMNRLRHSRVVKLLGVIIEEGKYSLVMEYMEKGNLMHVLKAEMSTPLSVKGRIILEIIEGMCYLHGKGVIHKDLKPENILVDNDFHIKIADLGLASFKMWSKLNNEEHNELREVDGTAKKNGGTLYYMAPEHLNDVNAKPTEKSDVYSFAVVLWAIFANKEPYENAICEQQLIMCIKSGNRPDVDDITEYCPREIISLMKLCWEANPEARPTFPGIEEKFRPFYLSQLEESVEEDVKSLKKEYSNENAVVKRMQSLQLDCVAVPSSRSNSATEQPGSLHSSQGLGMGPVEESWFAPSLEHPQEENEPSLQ
Summary of the method: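 hRIPK1 (aa 1-375) fusion protein (3.6 μg/ml final) was preincubated 30 min at rt with compound (33300-1.69 nM, 1% DMSO), then 50 μM ATP was added for 240 min at rt. ADP from autophosphorylation was measured by ADP-Glo luminescence and curves fitted by nonlinear regression.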

[2] = tested on: U937 cells; test: Cellular assay in U937 cells: activity of RIPK1 inhibitors on TNFα/zVAD.fmk-induced cell death (necroptosis), CellTiter 96 AQueous (MTS) readout; assay type: cell-based; conditions: Homo sapiens, U-937
Summary of the method: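 Necroptosis was measured by viable-cell MTS reduction (4 h, absorbance 490 nm) after overnight (18–24 h) 37° C culture. Cell suspensions of U937 cells carried TNFα (100 ng/ml) plus zVAD.fmk (50 μM) before compound was added. A 10-point curve (10 μM–0.26 nM or 1 μM–0.07 nM) was run in duplicate, normalised to the control lacking TNFα/zVAD.fmk.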

SMILES	IC50 [1]	IC50 [2]
Cc1nc2c(F)cc(C[C@H]3CC[C@H](C(=O)N4OCC[C@H]4c4cc(F)cc(F)c4)CC3)cn2n1 [compound 285, trans-[(3S)-3-(3,5-difluorophenyl)isoxazolidin-2-yl]-[4-[(8-fluoro-2-methyl-[1,2,4]triazolo[1,5-a]pyridin-6-yl)methyl]cyclohexyl]methanone]	11 nM	10 nM
Cc1ncc(C[C@H]2CC[C@H](C(=O)N3OCC[C@H]3c3cc(F)c(C)c(C#N)c3)CC2)cc1C#N [compound 286, trans-5-[[4-[(3S)-3-(3-cyano-5-fluoro-4-methyl-phenyl)isoxazolidine-2-carbonyl]cyclohexyl]methyl]-2-methyl-pyridine-3-carbonitrile]	1 nM	1 nM
Cc1c(F)cc([C@@H]2CCON2C(=O)[C@H]2CC[C@H](Cc3cncc(C#N)c3C)CC2)cc1C#N [compound 287, trans-5-[[4-[(3S)-3-(3-cyano-5-fluoro-4-methyl-phenyl)isoxazolidine-2-carbonyl]cyclohexyl]methyl]-4-methyl-pyridine-3-carbonitrile]	2 nM	1 nM
Cc1nc2c(C)cc(C[C@H]3CC[C@H](C(=O)N4OCC[C@H]4c4cc(F)cc(C#N)c4)CC3)cn2n1 [compound 288, trans-3-[(3S)-2-[4-[(2,8-dimethyl-[1,2,4]triazolo[1,5-a]pyridin-6-yl)methyl]cyclohexanecarbonyl]isoxazolidin-3-yl]-5-fluoro-benzonitrile]	17 nM	4 nM
Cc1nc2ccc(C[C@H]3CC[C@H](C(=O)N4OCC[C@H]4c4cc(C#N)ccc4F)CC3)cn2n1 [compound 289, trans-4-fluoro-3-[(3S)-2-[4-[(2-methyl-[1,2,4]triazolo[1,5-a]pyridin-6-yl)methyl]cyclohexanecarbonyl]isoxazolidin-3-yl]benzonitrile]	36 nM	733 nM
Cc1cn2nc(C[C@H]3CC[C@H](C(=O)N4OCC[C@H]4c4cc(F)cc(C#N)c4)CC3)cc(C)c2n1 [compound 290, trans-3-[(3S)-2-[4-[(2,8-dimethylimidazo[1,2-b]pyridazin-6-yl)methyl]cyclohexanecarbonyl]isoxazolidin-3-yl]-5-fluoro-benzonitrile]	11 nM	4 nM
Cc1cn2nc(C[C@H]3CC[C@H](C(=O)N4OCC[C@H]4c4cc(F)cc(F)c4)CC3)cc(C)c2n1 [compound 291, trans-[(3S)-3-(3,5-difluorophenyl)isoxazolidin-2-yl]-[4-[(2,8-dimethylimidazo[1,2-b]pyridazin-6-yl)methyl]cyclohexyl]methanone]	12 nM	1 nM
Cc1cn2nc(C[C@H]3CC[C@H](C(=O)N4OCC[C@H]4c4cc(F)cc(C#N)c4)CC3)c(C)cc2n1 [compound 292, trans-3-[(3S)-2-[4-[(2,7-dimethylimidazo[1,2-b]pyridazin-6-yl)methyl]cyclohexanecarbonyl]isoxazolidin-3-yl]-5-fluoro-benzonitrile]	14 nM	4 nM
Cc1cn2nc(C[C@H]3CC[C@H](C(=O)N4OCC[C@H]4c4cc(F)cc(F)c4)CC3)c(C)cc2n1 [compound 293, trans-[(3S)-3-(3,5-difluorophenyl)isoxazolidin-2-yl]-[4-[(2,7-dimethylimidazo[1,2-b]pyridazin-6-yl)methyl]cyclohexyl]methanone]	14 nM	3 nM
Cn1ncc2ccc(C[C@H]3CC[C@H](C(=O)N4OCC[C@H]4c4cc(F)cc(C#N)c4)CC3)cc21 [compound 294, trans-3-fluoro-5-[(3S)-2-[4-[(1-methylindazol-6-yl)methyl]cyclohexanecarbonyl]isoxazolidin-3-yl]benzonitrile]	4 nM	1 nM
Cn1ncc2ccc(C[C@H]3CC[C@H](C(=O)N4OCC[C@H]4c4cc(F)cc(F)c4)CC3)cc21 [compound 295, trans-[(3S)-3-(3,5-difluorophenyl)isoxazolidin-2-yl]-[4-[(1-methylindazol-6-yl)methyl]cyclohexyl]methanone]	6 nM	1 nM
Cn1ncc2ncc(C[C@H]3CC[C@H](C(=O)N4OCC[C@H]4c4cc(F)cc(C#N)c4)CC3)cc21 [compound 296, trans-3-fluoro-5-[(3S)-2-[4-[(1-methylpyrazolo[4,3-b]pyridin-6-yl)methyl]cyclohexanecarbonyl]isoxazolidin-3-yl]benzonitrile]	5 nM	2 nM
Cn1ncc2ncc(C[C@H]3CC[C@H](C(=O)N4OCC[C@H]4c4cc(F)cc(F)c4)CC3)cc21 [compound 297, trans-[(3S)-3-(3,5-difluorophenyl)isoxazolidin-2-yl]-[4-[(1-methylpyrazolo[4,3-b]pyridin-6-yl)methyl]cyclohexyl]methanone]	14 nM	7 nM
Cc1ccc([C@@H]2CCON2C(=O)[C@H]2CC[C@H](Cn3ncc4cc(C#N)c(F)cc43)CC2)cn1 [compound 298, 6-fluoro-1-[[trans-4-[(3S)-3-(6-methyl-3-pyridyl)isoxazolidine-2-carbonyl]cyclohexyl]methyl]indazole-5-carbonitrile]	20 nM	6 nM
Cc1cncc([C@@H]2CCON2C(=O)[C@H]2CC[C@H](Cc3ccc(F)c(C(N)=O)c3)CC2)n1 [compound 299, trans-2-fluoro-5-[[4-[(3S)-3-(6-methylpyrazin-2-yl)isoxazolidine-2-carbonyl]cyclohexyl]methyl]benzamide]	14 nM	19 nM
Cc1cc(C[C@H]2CC[C@H](C(=O)N3OCC[C@H]3c3cc(F)cc(C#N)c3)CC2)cn2c(C)nnc12 [compound 300, trans-3-[(3S)-2-[4-[(3,8-dimethyl-[1,2,4]triazolo[4,3-a]pyridin-6-yl)methyl]cyclohexanecarbonyl]-1,2-oxazolidin-3-yl]-5-fluorobenzonitrile]	19 nM	13 nM
Cc1cc(C[C@H]2CC[C@H](C(=O)N3OCC[C@H]3c3cnccn3)CC2)cn2c(C)nnc12 [compound 301, trans-[4-[(3,8-dimethyl-[1,2,4]triazolo[4,3-a]pyridin-6-yl)methyl]cyclohexyl]-[(3S)-3-pyrazin-2-yl-1,2-oxazolidin-2-yl]methanone]	33 nM	34 nM
Cc1cc(C[C@H]2CC[C@H](C(=O)N3OCC[C@H]3c3cc(F)cc(C#N)c3)CC2)cnn1 [compound 302, trans-3-fluoro-5-[(3S)-2-[4-[(6-methylpyridazin-4-yl)methyl]cyclohexanecarbonyl]isoxazolidin-3-yl]benzonitrile]	31 nM	37 nM
Cc1ccc(C[C@H]2CC[C@H](C(=O)N3OCC[C@H]3c3cc(F)cc(C#N)c3)CC2)nn1 [compound 303, trans-3-fluoro-5-[(3S)-2-[4-[(6-methylpyridazin-3-yl)methyl]cyclohexanecarbonyl]isoxazolidin-3-yl]benzonitrile]	7 nM	16 nM
Cc1ccc(C[C@H]2CC[C@H](C(=O)N3OCC[C@H]3c3cc(F)cc(F)c3)CC2)nn1 [compound 304, trans-[(3S)-3-(3,5-difluorophenyl)isoxazolidin-2-yl]-[4-[(6-methylpyridazin-3-yl)methyl]cyclohexyl]methanone]	23 nM	33 nM
Cc1cc(-c2cncc(C[C@H]3CC[C@H](C(=O)N4OCC[C@H]4c4cnccn4)CC3)c2)n(C)n1 [compound 305, trans-[4-[[5-(2,5-dimethylpyrazol-3-yl)-3-pyridyl]methyl]cyclohexyl]-[(3S)-3-pyrazin-2-ylisoxazolidin-2-yl]methanone]	29 nM	43 nM
Cn1nccc1C[C@H]1CC[C@H](C(=O)N2OCC[C@H]2c2ccc(F)cc2)CC1 [compound 306, trans-[(3S)-3-(4-fluorophenyl)isoxazolidin-2-yl]-[4-[(2-methylpyrazol-3-yl)methyl]cyclohexyl]methanone]	17 nM	25 nM
Cn1nccc1C[C@H]1CC[C@H](C(=O)N2OCC[C@H]2c2cc(F)cc(F)c2)CC1 [compound 307, trans-[(3S)-3-(3,5-difluorophenyl)isoxazolidin-2-yl]-[4-[(2-methylpyrazol-3-yl)methyl]cyclohexyl]methanone]	15 nM	2 nM
Cc1nn(C)cc1-c1cncc(C[C@H]2CC[C@H](C(=O)N3OCC[C@H]3c3cnccn3)CC2)c1 [compound 308, trans-[4-[[5-(1,3-dimethylpyrazol-4-yl)-3-pyridyl]methyl]cyclohexyl]-[(3S)-3-pyrazin-2-ylisoxazolidin-2-yl]methanone]	21 nM	47 nM
Cc1ncc(C[C@H]2CC[C@H](C(=O)N3OCC[C@H]3c3ccc(F)c(F)c3)CC2)cn1 [compound 309, trans-[(3S)-3-(3,4-difluorophenyl)isoxazolidin-2-yl]-[4-[(2-methylpyrimidin-5-yl)methyl]cyclohexyl]methanone]	15 nM	50 nM
